Entries after “also recorded” stand apart in the source; their conditions may differ. Like-named read-outs stand apart in the source and are kept apart here. Marks after values point to notes of the source that are not given here.
Tests used:
human DOR [1] = molecular target: T1, human DOR (Homo sapiens, UniProt P41143); test: [35S]GTPγS binding assay, functional activity for the DOR; assay type: biochemical; details: for Emax: read-out: Functional Activity for DOR, Emax (95% CI)
T1 construct: expressed in transfected cells; host or cells: CHO cells (membrane preparation)
Description: (§1) The human MOR, DOR, or KOR recombinant CHO cell pellets were resuspended in 50 mM Tris–HCl buffer containing 5 mM MgCl2, 1 mM ethylene glycol bis(2-aminoethyl ether)-N,N,N,N-tetraacetic acid (EGTA), pH 7.4. The cell suspensions were disrupted by use of a glassteflon homogeniser and centrifuged at 48,000× g for 15 min. The supernatant was discarded and the pellets were resuspended in buffer at a concentration of 5 mg protein/mL and stored at −80 °C until further use.
Human MOR, DOR, or KOR recombinant CHO cell membranes were incubated for 2 h at 25 °C in 0.25 mL of 50 mM Tris–HCl buffer containing 5 mM MgCl2, 1 mM EGTA, 100 mM NaCl, pH 7.4 with various concentrations of the tested compound, 30 μM guanosine 5-diphosphate (GDP) and 0.1 nM [^35S]GTPγS (PerkinElmer, Inc.). The incubation was terminated by collecting membranes on Filtermat B filter (PerkinElmer, Inc.) using a FilterMate™ harvester (Perkin Elmer, Inc.). The filters were then washed three times with 50 mM Tris–HCl buffer, pH 7.4. Then, MeltiLex scintillant (PerkinElmer, Inc.) was melted onto the dried filters. Radioactivity was determined by a MicroBeta scintillation counter (PerkinElmer, Inc.). EC50, Emax, and 95% CI values were calculated by Prism software (version 5.0). Nonspecific binding was measured in the presence of 10 μM unlabeled GTPγS (PerkinElmer, Inc.).

human DOR [2] = molecular target: T1, human DOR; test: Competitive binding assay, [3H]DPDPE displacement, DOR
Description: as §1
(§2) Human MOR, DOR, or KOR recombinant CHO cell membranes were incubated for 2 h at 25 °C in 0.25 mL of the buffer containing with various concentrations of the tested compound, 2 nM [^3H] DAMGO, [^3H] […] U69,593 (PerkinElmer, Inc., MA, USA), respectively. The incubation was terminated by collecting membranes on Filtermat B filter (PerkinElmer, Inc.) using a FilterMate™ harvester (PerkinElmer, Inc.). The filters were then washed three times with 50 mM Tris–HCl buffer, pH 7.4. Then, MeltiLex scintillant (PerkinElmer, Inc.) was melted onto the dried filters. Radioactivity was determined by a MicroBeta scintillation counter (PerkinElmer, Inc.). […] Ki and 95% CI values were calculated by Prism software (version 5.0).

human MOR = molecular target: T2, human MOR (Homo sapiens, UniProt P35372); test: Competitive binding assay, [3H]DAMGO displacement, MOR
T2 construct: expressed in transfected cells; host or cells: CHO cells (membrane preparation)
Description: as §1, §2

human KOR = molecular target: T3, human KOR (Homo sapiens, UniProt P41145); test: Competitive binding assay, [3H]U69,593 displacement, KOR
T3 construct: expressed in transfected cells; host or cells: CHO cells (membrane preparation)
Description: as §1, §2

human DOR [3] = molecular target: T1, human DOR; details: cited from earlier work; for Emax for the DOR (95% CI) / EC50 / Functional Activity for DOR, Emax (95% CI) / Emax: Percent stimulation at 10 μM of the tested compound: [35S]GTPγS
human DOR [4] = molecular target: T1, human DOR; details: cited from earlier work
[5] = read-out: EC50 for the DOR (95% CI)
[6] = read-out: Ki for the DOR (95% CI)
[7] = read-out: Functional Activity for DOR, EC50 (95% CI), human DOR recombinant CHO cell membrane
[8] = read-out: Binding Affinity, Ki (DOR) (95% CI), [3H]DPDPE, CHO cells expressing human DOR

SMILES	Functional activity for the DOR, in words (human DOR [1]; [35S]GTPγS)	Emax (human DOR [1]) [%]	Ki (human DOR [2]) [nM]	Ki (human MOR) [nM]	Ki (human KOR) [nM]	Emax for the DOR (95% CI) (human DOR [3]) [%]	Ki (human DOR [4]; [6]) [nM]	further results
O=S(=O)(CCc1ccccc1)N1CCC23c4c5ccc(O)c4OC2c2[nH]c4ccccc4c2CC3(O)C1C5 (stereo not drawn) [9e, 6,7-Didehydro-4,5α-epoxy-17-((2-phenylethyl)sulfonyl)indolo[2′,3′:6,7]morphinan-3,14β-diol]	DOR agonists; also recorded: full DOR agonist activity with moderate potency	88.1	132	1400	17800			EC50 (human DOR [1]): 75.8 nM; Functional activity category for the DOR (by Emax) (human DOR [1]; [35S]GTPγS): full agonist
O=C(c1ccccc1)N1CC[C@]23c4c5ccc(O)c4O[C@H]2c2[nH]c4ccccc4c2C[C@@]3(O)[C@H]1C5 [SYK-736]						−92.7	290	EC50 (human DOR [3]; [5]): 322 nM
O=S(=O)(Cc1ccccc1)N1CCC23c4c5ccc(O)c4OC2c2[nH]c4ccccc4c2CC3(O)C1C5 (stereo not drawn) [9d, 17-(Benzylsulfonyl)-6,7-didehydro-4,5α-epoxyindolo[2′,3′:6,7]morphinan-3,14β-diol]	DOR agonists	47.1	734	5180	18800			Binding affinity for the DOR, in words (human DOR [2]): low
Oc1ccc2c3c1O[C@H]1c4[nH]c5ccccc5c4C[C@@]4(O)[C@@H](C2)N(CCCc2ccccc2)CC[C@]314 [SYK-903]		105	166					EC50 (human DOR [1]): 7.37 nM
Oc1ccc2c3c1O[C@H]1c4[nH]c5ccccc5c4C[C@@]4(O)[C@@H](C2)N(CCc2ccccc2)CC[C@]314 [SYK-707]								Functional Activity for DOR, Emax (95% CI) (human DOR [3]): 40.3%; EC50 (human DOR [3]; [7]): 15.1 nM; Ki (human DOR [4]; [8]): 1.94 nM
Oc1ccc2c3c1O[C@H]1c4[nH]c5ccccc5c4C[C@@]4(O)[C@@H](C2)N(Cc2ccccc2)CC[C@]314 [SYK-619]								Functional Activity for DOR, Emax (95% CI) (human DOR [3]): −56.5%; EC50 (human DOR [3]; [7]): 16.1 nM; Ki (human DOR [4]; [8]): 15.8 nM
CC(=O)N1CC[C@]23c4c5ccc(O)c4O[C@H]2c2[nH]c4ccccc4c2C[C@@]3(O)[C@H]1C5 [SYK-747]							977	Emax: Percent stimulation at 10 μM of the tested compound (human DOR [3]): −4.86%
O=C(Cc1ccccc1)N1CC[C@]23c4c5ccc(O)c4O[C@H]2c2[nH]c4ccccc4c2C[C@@]3(O)[C@H]1C5 [SYK-754]						88.5	89	Functional activity for the DOR, in words (human DOR [3]): DOR full agonist with moderate potency; EC50 (human DOR [3]; [5]): 127 nM
C=CS(=O)(=O)N1CCC23c4c5ccc(O)c4OC2c2[nH]c4ccccc4c2CC3(O)C1C5 (stereo not drawn) [9g, 6,7-Didehydro-4,5α-epoxy-17-(ethenylsulfonyl)indolo[2′,3′:6,7]morphinan-3,14β-diol]	inverse agonist activities; also recorded: almost full inverse agonists	-80.2	196	3570	59100			EC50 (human DOR [1]): 7.8 nM
O=S(=O)(C1CC1)N1CCC23c4c5ccc(O)c4OC2c2[nH]c4ccccc4c2CC3(O)C1C5 (stereo not drawn) [9f, 17-(Cyclopropylsulfonyl)-6,7-didehydro-4,5α-epoxyindolo[2′,3′:6,7]morphinan-3,14β-diol]	inverse agonist activities; also recorded: almost full inverse agonists	-80.5	7.44	3900	13.6			EC50 (human DOR [1]): 1.59 nM; Functional activity category for the DOR (by Emax) (human DOR [1]; [35S]GTPγS): full inverse agonist (full inverse agonist (−80% ≥ Emax)); Affinity for the DOR, fold lower than that of the mother compound NTI (human DOR [2]; Ki compared with NTI): over 10 fold
O=S(=O)(c1ccccc1)N1CCC23c4c5ccc(O)c4OC2c2[nH]c4ccccc4c2CC3(O)C1C5 (stereo not drawn) [9c, 6,7-Didehydro-4,5α-epoxy-17-(phenylsulfonyl)indolo[2′,3′:6,7]morphinan-3,14β-diol]	neutral DOR antagonist		49.6	20500	95.6			
C=CCN1CC[C@]23c4c5ccc(O)c4O[C@H]2c2[nH]c4ccccc4c2C[C@@]3(O)[C@H]1C5 [SYK-706]								Functional Activity for DOR, Emax (95% CI) (human DOR [3]): 16.2%; EC50 (human DOR [3]; [7]): 101 nM; Ki (human DOR [4]; [8]): 0.609 nM
O=C(N1CC[C@]23c4c5ccc(O)c4O[C@H]2c2[nH]c4ccccc4c2C[C@@]3(O)[C@H]1C5)C(F)(F)F [SYK-752]							7.84	Emax: Percent stimulation at 10 μM of the tested compound (human DOR [3]): −1.10%
O=S(=O)(N1CCC23c4c5ccc(O)c4OC2c2[nH]c4ccccc4c2CC3(O)C1C5)C(F)(F)F (stereo not drawn) [9b, 6,7-Didehydro-4,5α-epoxy-17-(1,1,1-trifluoromethylsulfonyl)indolo[2′,3′:6,7]morphinan-3,14β-diol]	inverse agonist activities		365	11800	675			Emax at 10 µM (human DOR [1]; read-out: Emax: Percent stimulation at 10 μM of the tested compound, [35S]GTPγS, 10 μM): -36.1%
C=CC(=O)N1CC[C@]23c4c5ccc(O)c4O[C@H]2c2[nH]c4ccccc4c2C[C@@]3(O)[C@H]1C5 [SYK-836]						−86.2	1.16	EC50 (human DOR [3]; [5]): 1.43 nM
CS(=O)(=O)N1CCC23c4c5ccc(O)c4OC2c2[nH]c4ccccc4c2CC3(O)C1C5 (stereo not drawn) [9a, 6,7-Didehydro-4,5α-epoxy-17-(methylsulfonyl)indolo[2′,3′:6,7]morphinan-3,14β-diol]	inverse agonist activities	-48.8	284	10100				EC50 (human DOR [1]): 0.468 nM
Oc1ccc2c3c1O[C@H]1c4[nH]c5ccccc5c4C[C@@]4(O)[C@@H](C2)N(CC2CC2)CC[C@]314 [NTI, naltrindole]								Emax: Percent stimulation at 10 μM of the tested compound (human DOR [3]): 7.50 ^h %; Functional activity for the DOR, in words (human DOR [3]): neutral antagonist
O=C(C1CC1)N1CC[C@]23c4c5ccc(O)c4O[C@H]2c2[nH]c4ccccc4c2C[C@@]3(O)[C@H]1C5 [SYK-623]						−91.2	17.3	Functional activity for the DOR, in words (human DOR [3]): full inverse agonist; Functional activity for the DOR, in words (human DOR [3]; listed as SKY-623): DOR full inverse agonist with high potency; EC50 (human DOR [3]; [5]): 0.969 nM
Oc1ccc2c3c1O[C@H]1c4[nH]c5ccccc5c4C[C@@]4(O)[C@@H](C2)N(CC(F)(F)F)CC[C@]314 [SYK-165]						−44.8		
O=C(CCc1ccccc1)N1CC[C@]23c4c5ccc(O)c4O[C@H]2c2[nH]c4ccccc4c2C[C@@]3(O)[C@H]1C5 [SYK-753]						97.5	41.5	EC50 (human DOR [3]; [5]): 132 nM
